Like-named read-outs stand apart in the source and are kept apart here.
Key:
Sogatella furcifera [1] = test: Soil drenching application test, Sogatella furcifera (Reference Test Example 4); format: in vivo
Protocol: (§1) A test solution adjusted to a predetermined concentration (10% aqueous acetone solution) was applied to rice seedlings in a pot by soil drenching. The rice seedlings were allowed to stand for 3 days. […] The test was duplicated.
The death rate against larvae at the second instar born of Sogatella furcifera was calculated in the same manner as in Reference Test Example 3.

[2] = tested on: Nilaparvata lugens which is low-sensitive to imidacloprid; test: Foliage application test for Nilaparvata lugens, imidacloprid low-sensitive strain (Test Example 4); format: in vivo; details: for Death rate (%): low-sensitive strain, 6 days after release
Protocol: (§2) Test solutions adjusted to a predetermined concentration (50% aqueous acetone solution) applied to rice seedlings in a pot for foliage application. […] The test was duplicated.
(§3) For comparison, a test was carried out in the same manner as described above, except that a Nilaparvata lugens strain which is highly sensitive to imidacloprid was used.
(§4) Regarding the origin of the test insect pests, Nilaparvata lugens which is low-sensitive to imidacloprid was an insect which had been collected outdoors in Kumamoto Prefecture, 2007, and Nilaparvata lugens which is sensitive to imidacloprid was an insect which had been collected in Kagoshima Prefecture and was then subjected to indoor successive raising.

Sogatella furcifera [3] = test: Foliage application test, Sogatella furcifera (Reference Test Example 7); format: in vivo
Text: (§5) A test solution adjusted to a predetermined concentration (10% aqueous acetone solution) was applied to rice seedlings in pot culture. […] The test was duplicated.

[4] = tested on: Frankliniella occidentalis; test: Soil drenching application test, Frankliniella occidentalis (Reference Test Example 6); format: in vivo
Text: A test solution adjusted to a predetermined concentration (10% aqueous acetone solution) was applied to cucumber seedlings in pot couture by soil drenching. The cucumber seedlings were allowed to stand for 4 days. A leaf disk having a diameter of 2.8 cm was then cut out from cucumber seedlings, and first instar larvae were released. […] The test was duplicated.

[5] = tested on: Nilaparvata lugens which is sensitive to imidacloprid; test: Foliage application test for Nilaparvata lugens, imidacloprid-sensitive strain (Test Example 4, comparison); format: in vivo; details: 6 days after release
Protocol: as §2, §3, §4

[6] = tested on: Haemaphysalis longicornis; test: Tickcidal effect against Haemaphysalis longicornis, dry film in glass vial (Test Example 5); format: in vivo; details: Haemaphysalis longicornis, 48 h, 2 days after release; for pest or weed control at 1 ppm: 16-keto aspergillimide 1 ppm alone; for pest or weed control at 2 ppm: 16-keto aspergillimide 2 ppm alone
Protocol: Acetone solutions (30 μl) adjusted to predetermined concentrations were placed in 4 mL-volume glass vials. The vials were placed on a shaker, and a dry film of the compound was prepared on the inner wall of the vials. The vials were dried for 24 hr or more. Larvae (10 or more heads) were released in the vials, and the vials were lidded. The vials were then left to stand in a humidistat chamber (25° C., humidity 85%, fully darkened conditions). […] The test was duplicated.
(§6) Colby's formula: Theoretical value (%)=100−(A×B)/100

Laodelphax striatellus [7] = test: Root dipping application test, Laodelphax striatellus (Reference Test Example 1); format: in vivo
Text: (§7) A test solution adjusted to a predetermined concentration (10% aqueous acetone solution) was applied to the root of wheat seedlings in water culture. […] The test was duplicated.
As is apparent from Table 15, the systemic insecticidal activity of 16-keto aspergillimide was much higher than that of a control compound, Asperparaline A.
The 16-keto aspergillimide and Asperparaline A used in this test were obtained according to methods described in The Journal of Antibiotics, 1997, 50(10), 840-846. This is true of the following test examples.

[8] = tested on: Frankliniella occidentalis; test: Foliage application test, Frankliniella occidentalis, haricot leaf disk (Reference Test Example 9); format: in vivo
Text: A leaf disk having a diameter of 2.8 cm was cut out from haricot in pot culture, and a test solution adjusted to a predetermined concentration (50% aqueous acetone solution, with 0.05% Tween 20 added) was applied thereto. The leaf disk was air-air dried, and first instar larvae were released.

Nephotettix cincticeps [9] = test: Foliage application test, Nephotettix cincticeps (Reference Test Example 8); format: in vivo
Protocol: as §5
The death rate against larvae at the second instar born of Nephotettix cincticeps was calculated in the same manner as in Reference Test Example 7.

Nilaparvata lugens = test: Soil drenching application test, Nilaparvata lugens (Reference Test Example 3); format: in vivo
Text: as §1

[10] = tested on: Haemaphysalis longicornis; test: Tickicidal effect against Haemaphysalis longicornis on body surface of mouse (Test Example 6); format: in vivo; details: for Death rate (%): mouse body surface, 3 days after release
Protocol: Skin hair on the back of mouse (ICR, male, 5 week olds) was clipped in a diameter of about 2 cm, and a 15-mL polystyrene conical tube cut to have a height of about 1.5 cm was bonded to the body surface of the mouse with an instant adhesive. Test solutions (20 μl) adjusted with ethanol were dropped on the body surface of mice within the bonded tube. After thorough drying, larvae (10 or more heads) were released within the tube, and the tube was lidded. […] The test was hexaplicated.
as §6

Laodelphax striatellus [11] = test: Foliage application test for Laodelphax striatellus (Test Example 2); format: in vivo; details: 16-keto aspergillimide 2.5 ppm alone
Text: as §6

[12] = tested on: Trigonotylus caelestialium; test: Root dipping application test, Trigonotylus caelestialium (Reference Test Example 2); format: in vivo
Text: as §7

Laodelphax striatellus [13] = test: Laodelphax striatellus soil drenching application test (Test Example 1); details: 16-keto aspergillimide 0.2 mg/seedling alone
Protocol: Test solutions adjusted to a predetermined concentration (10% aqueous acetone solution) were applied to rice seedling in a pot by soil drenching. The rice seedling was allowed to stand for 3 days. Second instar larvae were released and was then allowed to stand in a humidistat chamber (light period 16 hr−dark period 8 hr) (25° C.).
Death rate (%)={number of dead larvae/(number of survived larvae+number of dead larvae)}×100
wherein A: 100−(death rate when application was performed only with 16-keto aspergillimide); and

[14] = tested on: larvae at the third instar born of Haemonchus contortus; details: The Journal of Antibiotics, 1997, 50(10), 840-846; cited from earlier work
Aphis gossypii = test: Foliage application test for Aphis gossypii, cucumber leaf disk (Test Example 3); format: in vivo; details: 16-keto aspergillimide 1.25 ppm alone
Text: Test solutions adjusted to a predetermined concentration (50% aqueous acetone solution; 0.05% Tween 20 added) were applied to a leaf disk having a diameter of 2.0 cm cut out from a cucumber grown in a pot.
as §6

Nephotettix cincticeps [15] = test: Soil drenching application test, Nephotettix cincticeps (Reference Test Example 5); format: in vivo
Protocol: as §1
The death rate against second instar larvae was calculated in the same manner as in Reference Test Example 3.

[16] = 1.0 mg/seedling, rice seedlings, 3 days after release
[17] = 100 ppm, rice seedlings, 3 days after release
[18] = read-out: Death rate (%), Table 9
[19] = read-out: Death rate (%), Table 10
[20] = 0.5 μg/seedling, wheat seedlings, 3 days after release
[21] = 16-keto aspergillimide 1 μg/2 cm^2 alone

**Q.** For `C[C@H]1CC(=O)N2C[C@]34C[C@]5(CC(=O)N(C)C5=O)C(C)(C)[C@@H]3C[C@]12C(=O)N4C` [16-Keto aspergillimide, 16-keto aspergillimide], which systemic insecticidal activity (Sogatella furcifera [1]) is on record?
**A.** exhibited systemic insecticidal activity

**Q.** And the “Death rate (%)” value (Sogatella furcifera [1]; [16])?
**A.** 100%

**Q.** What about the “death rate for the low-sensitive strain compared with the high-sensitive strain” value ([2]; Table 7 against Table 8) of the same compound?
**A.** the same

**Q.** What about the “Death rate (%)” value ([2]; treatment concentration 5 ppm) of the same compound?
**A.** 60%

**Q.** And the “Death rate (%)” value ([2]; treatment concentration 20 ppm)?
**A.** 95%

**Q.** What about the “Death rate (%)” value ([2]; treatment concentration 50 ppm) of the same compound?
**A.** 100%

**Q.** What about the “insecticidal activity by foliage application” value (Sogatella furcifera [3]) of the same compound?
**A.** exhibited insecticidal activity

**Q.** What about the “Death rate (%)” value (Sogatella furcifera [3]; [17]) of the same compound?
**A.** 100%

**Q.** And the systemic insecticidal activity [4]?
**A.** exhibited systemic insecticidal activity

**Q.** What about the “Death rate (%)” value ([4]; 2.0 mg/seedling, cucumber seedlings, 6 days after release) of the same compound?
**A.** 100%

**Q.** And the “Death rate (%)” value ([5]; treatment concentration 5 ppm)?
**A.** 95%

**Q.** What about the “Death rate (%)” value ([5]; treatment concentration 20 ppm) of the same compound?
**A.** 100%

**Q.** And the “Death rate (%)” value ([5]; treatment concentration 50 ppm)?
**A.** 100%

**Q.** And the pest or weed control at 1 ppm [6, 18]?
**A.** 10%

**Q.** What about the pest or weed control at 2 ppm [6, 18] of the same compound?
**A.** 17%

**Q.** What about the pest or weed control at 1 ppm [6, 19] of the same compound?
**A.** 14%

**Q.** What about the pest or weed control at 2 ppm [6, 19] of the same compound?
**A.** 20%

**Q.** And the “Death rate (%) for each amount of test chemical compound” value (Laodelphax striatellus [7]; [20])?
**A.** 100%

**Q.** And the “systemic insecticidal activity compared with control compound Asperparaline A” value (Laodelphax striatellus [7]; Table 15)?
**A.** much higher

**Q.** And the “Death rate (%)” value ([8]; 100 ppm, haricot leaf disk, 3 days after release)?
**A.** 100%

**Q.** And the “insecticidal activity by foliage application” value ([8]; foliage application)?
**A.** exhibited insecticidal activity

**Q.** And the “insecticidal activity in foliage application” value (Nephotettix cincticeps [9])?
**A.** exhibited insecticidal activity

**Q.** What about the “Death rate (%)” value (Nephotettix cincticeps [9]; [17]) of the same compound?
**A.** 100%

**Q.** What about the systemic insecticidal activity (Nilaparvata lugens) of the same compound?
**A.** exhibited systemic insecticidal activity

**Q.** And the “Death rate (%)” value (Nilaparvata lugens; [16])?
**A.** 100%

**Q.** What about the “Theoretical value (%) by Colby's formula” value [10, 21] of the same compound?
**A.** 22%

**Q.** What about the “Death rate (%)” value [10, 21] of the same compound?
**A.** 22%

**Q.** And the “Death rate (%)” value ([10]; 16-keto aspergillimide 2 μg/2 cm^2 alone)?
**A.** 57%

**Q.** And the “Theoretical value (%) by Colby's formula” value ([10]; 16-keto aspergillimide alone)?
**A.** 57%

**Q.** What about the “Theoretical value (%) calculated by the Colby's formula” value (Laodelphax striatellus [11]) of the same compound?
**A.** 65%

**Q.** And the “Death rate (%)” value (Laodelphax striatellus [11]; foliage application, 3 days after release)?
**A.** 65%

**Q.** What about the systemic insecticidal activity [12] of the same compound?
**A.** exhibited systemic insecticidal activity

**Q.** And the “Death rate (%)” value [12, 20]?
**A.** 100%

**Q.** What about the “Theoretical value (%) calculated by the Colby's formula” value (Laodelphax striatellus [13]) of the same compound?
**A.** 30%

**Q.** What about the “Death rate (%)” value (Laodelphax striatellus [13]; soil drenching, 3 days after release) of the same compound?
**A.** 30%

**Q.** What about the anthelmintic activity [14] of the same compound?
**A.** anthelmintically active

**Q.** And the “Theoretical value calculated by the Colby's formula (%)” value (Aphis gossypii)?
**A.** 26%

**Q.** And the “Death rate (%)” value (Aphis gossypii; leaf disk, 3 days after release)?
**A.** 26%

**Q.** And the systemic insecticidal activity (Nephotettix cincticeps [15])?
**A.** exhibited systemic insecticidal activity

**Q.** And the “Death rate (%)” value (Nephotettix cincticeps [15]; [16])?
**A.** 100%
